Results taken from patent publication US20070041904A1, “Peptides whose uptake by cells is controllable” (priority 2003, published 2007).

Tests used:
[1] = system: human squamous cell carcinoma specimens; experiment: Staining of freshly resected squamous cell carcinoma slices
Experimental: Squamous Cell Carcinoma Specimens. Human squamous cell carcinoma specimens from planned resections of neoplasms were collected postoperatively according to a protocol with institutional review board approval. The specimens were in ice-cold normal saline for 30 min during transport back to the laboratory, where they were cut by hand to ≈1-mm-thick slices, added to 1 ml of 1 μM peptide for 15 min at room temperature, rinsed five times for 2 min in 1 ml of HBSS, cryosectioned, and imaged as described above.
ACPPs Light Up Human Squamous Cell Carcinomas. Although human tumor cell lines xenografted into immunodeficient mice are popular cancer models, they fail to mimic many aspects of real human tumors. […] Contrast, defined as (tumor tissue fluorescence−autofluorescence)/(normal tissue fluorescence−autofluorescence), was almost eight in this example. […]
Images from tumor tissue treated with cleavable peptide are much clearer than are images from similar tumor tissue treated with “scrambled” uncleavable peptides and are much clearer than images from normal tongue tissue treated with cleavable peptide. […] Sections were taken for fluorescence microscopy using a low-power objective, and tissue type was verified by staining tissue. […]

[2] = system: Jurkat cells; experiment: 99mTc-labeled ACPP uptake into Jurkat cells, gamma counting; type: cell-based, human; conditions: for increase in cell-associated radioactivity after cleavage: MMP-9 cleaved vs intact
Experimental: ACPPs may be used to deliver radioactive cargo to target cells and tissues. […] Spiked with 0.25 mCi Tc label, 25 nM intact or cleaved substrate. The target Jurkat cells were incubated with the peptides for 30 min at 37° C., and then washed 3 times with HBSS (HEPES-buffered saline solution) at room temperature (RT). 20 hours later, cells were counted by Gamma counter.
Spiked (4%) with 60 μCi ^99mTc-labeled peptide, the target Jurkat cells were loaded with 2 μM intact or MMP-9-cleaved peptide at 37° C. for 30 min. Then, the cells were washed with RT HBSS 3 times, and counted (Gamma counter) 20 hours later.
The use of ACPP labeled with technetium-99m (^99mTc) as described in Example 19 can be extended for use as an imaging agent for mouse models of cancer. One obvious advantage of gamma scintigraphy as compared to fluorescent imaging is that gamma imaging reaches much deeper into tissue. As described above, various carrier-conjugated ACPPs that incorporate N-epsilon-bis(2-pyridylmethyl)lysine (DPK), a high-affinity chelator for technetium tricarbonyl, Tc(CO)3, have been prepared. […] The simplest of these compounds, (11 KDa-mPEG)-e9-XPLGLAG-r9-[DPK-^99mTc(CO)3] was first tested on isolated cultured cells. (Note: X denotes a 6-aminohexanoyl spacer, and lower case letters denote D-amino acids.) Before cleavage, the uptake of this CPP into Jurkat lymphocytes was only 1.9% of the positive control CPP, r9-[DPK-^99mTc(CO)3].

[3] = system: Jurkat cells; experiment: Gd-labeled ACPP uptake into Jurkat cells, ICP-MS; type: cell-based, human
Experimental: Gadolinium chloride (GdCl3) is used to add gadolinium (Gd) to provide a contrast-enhancing, PEGylated ACPP mPEG-S—CH2CONH-e9-ahx-PLGLAG-r9-K[DOTA(Gd)]-CONH2 (SEQ ID NO: 75). It will be understood that in other embodiments the ACPP need not include a PEG moiety, and may include other moieties as well. […] Jurkat cells were incubated with 8 μM of the intact or of the cleaved substrate at 37° C. for 30 min; then the cells were washed four times with RT HBSS. Gd concentration was determined by ICP-MS (inductively coupled plasma mass spectroscopy). Cleavage led to a 19-fold increase in uptake by target cells.
Three ACPPs carrying Gd^3+ were synthesized: (11-KDa-mPEG)-e9-XPLGLAG-r9-K(DOTA-Gd), Suc9-(70 KDa dextran)-e9-XPLGLAG-r9-K(DOTA-Gd), and Suc9-(70 KDa dextran)-e9-XPLGLAX-r9-K(DOTA-Gd). The first of these ACCPs was tested at 8 μM on isolated Jurkat lymphocytes. Gd^3+ uptake was measured by inductively coupled plasma mass spectroscopy. […] Thus, MMP-mediated cleavage of the test peptide increased uptake by a factor of 19-fold […].

[4] = Phage display selection, all screens
Experimental: (§1) In-vivo selections were performed by injection of phage libraries into mice either containing tumor xenografts (HT1080 cells) or mammary tumors in transgenic mice (MMTV-PyMT). Tumor tissues were removed 3-24 hrs after injection. The rescued phage were re-amplified in bacteria and reinjected into another mouse for up to 7 iterative cycles of selection. Representative phage were isolated at each round and sequenced to monitor the selection process.
(§2) In-vitro selection strategies involved screening for phage that are specifically cleaved by purified enzymes or tissue extracts associated with tumor tissue while also selecting against cleavage by enzymes and extracts associated with normal tissue. […] The inventors have employed two different in-vitro selection paradigms. In the initial selection, the 2.5×10^6 diversity M13 library was treated with the kidney proteases meprin and neprilysin for 3 hours. Ni-NTA agarose (Qiagen) was then added and allowed to bind to the phage for 5-15 minutes, then the Ni-NTA agarose carrying the phage was resuspended with MMP-9 and incubated at 37 for 2-3 hours. After removing the beads by centrifugation, phage released into the supernatant were plated with fresh bacteria. This procedure selects for phage that remain uncleaved by kidney proteases but are then released by MMP-9. This procedure was repeated for as many as six rounds with representative phage being isolated and sequenced to monitor the selection process. The same selection procedure was also performed with liver/kidney extract instead of meprin/neprilysin and tumor extract instead of MMP-9. The resulting sequences are tabulated below. The most promising peptides were chemically resynthesized with flanking e9 and r9 sequences and a C-terminal fluorescein tag. They were then assayed by tricine gel electrophoresis for cleavage by tumor, liver, kidney extracts and MMP-9.

[5] = system: neprilysin / meprin / MMP-9; experiment: In-vitro phage selection, Nep/Mep/MMP-9
Experimental: as §2

[6] = system: furin; experiment: Furin inhibition assay; type: biochemical
furin, sequence (P09958 108-576 limits assumed): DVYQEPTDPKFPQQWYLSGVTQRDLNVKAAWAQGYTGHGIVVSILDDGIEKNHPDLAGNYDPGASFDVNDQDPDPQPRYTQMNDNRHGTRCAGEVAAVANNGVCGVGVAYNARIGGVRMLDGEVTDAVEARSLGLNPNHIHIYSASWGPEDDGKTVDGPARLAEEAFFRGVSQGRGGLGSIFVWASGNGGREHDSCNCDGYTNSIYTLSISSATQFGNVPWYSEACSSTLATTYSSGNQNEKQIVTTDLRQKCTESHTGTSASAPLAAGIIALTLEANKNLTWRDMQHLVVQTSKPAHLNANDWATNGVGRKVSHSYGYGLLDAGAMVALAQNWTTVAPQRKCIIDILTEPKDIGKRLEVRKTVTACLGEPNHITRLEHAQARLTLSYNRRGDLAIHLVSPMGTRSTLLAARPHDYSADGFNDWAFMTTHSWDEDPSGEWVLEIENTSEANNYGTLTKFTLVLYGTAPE
Experimental: The furin assay was performed with Boc-Arg-Val-Arg-Arg-MCA substrate (Bachem) at a final concentration of 200 μM in 100 μl of 100 mM MES/NaOH, pH 7.0, containing 1 mM CaCl2. Inhibitory peptides were pre-incubated with 1 unit furin enzyme (NEB) for 30 min prior to addition of substrate. Assays were performed in triplicate by incubation at 37° C. for 4 hours in a 96-well clear-bottom black-wall Costar plate. Release of MCA was measured by excitation at 380 nm and emission at 460 nm. IC50's were determined as the concentration of inhibitor required to inhibit 50% of the emission increase at 460 nm over the no-enzyme control. […]

[7] = In-vitro phage selection, liver/kidney/tumor extracts
Experimental: as §2

[8] = system: MMP-2; experiment: Cleavage kinetics for MMP-2 cleavage; type: biochemical
Description: Cleavage kinetics for MMP-2 cleavage of H2N-e6-XPLGLAG-r9-Xc(Cy5)-CONH2 (where X≡aminohexanoic acid) are illustrated in FIG. 27.
Cleavage of a MMP-2 substrate ACPP is illustrated in FIG. 27.

[9] = system: HT1080 tumor xenografts or mammary tumors (MMTV-PyMT); experiment: In-vivo phage selection; parameters: species or system mice; conditions: mouse
Experimental: as §1

[10] = system: HT-1080 tumors; experiment: In vivo fluorescence imaging of HT-1080 tumor xenografts; parameters: species or system nude mice; conditions: mean±SE
Experimental: Xenografts in Mice. Nude mice (age, 4-6 weeks) were injected s.c. with ≈10^6 HT-1080 cells. […] Animals were then imaged at various times by using a Nikon f/1.2 camera lens in front of a cooled charge-coupled device camera (SenSys, Photometrics, Tucson, Ariz.). For longer lasting imaging studies, animals were allowed to wake up after 2 h of anesthesia and were reanesthetized at ≈4 and 6 hr for further data collection. […] After imaging was ended, animals were killed with halothane, and organs of interest were harvested and weighed. […] Cy5 fluorescence was imaged as described above.
We next tested whether ACPPs could light up protease expressing human tumor xenografts in whole mice. We chose HT-1080 tumors in the axilla of nude mice because these tumors express both MMP-2 and MMP-9 and have been used to test other MMP-2 cleavable contrast agents (22, 26). […] Anesthetized mice were injected through the tail vein with either an MMP-2 cleavable ACPP, an isomeric scrambled version verified not to be a substrate for MMP-2 or MMP-9, or an all-D-amino acid version. […] To quantitate the results, we measured the contrast index defined as (fluorescence intensity of tumor−autofluorescence)/(fluorescence of normal contralateral region−autofluorescence).

Substance: (5 kDa PEG)-eeeeeeeeeXPLGLAG-rrrrrrrrrXk(Cy5) [cleavable peptide]
- contrast, relatively differentiated oral cavity_oropharynx tumors ([1]; mean±SD, two patients): 2.7±0.2
- contrast, high-grade laryngeal tumors ([1]; two tumors): 6.5±3.4

Substance: (11 KDa-mPEG)-e9-XPLGLAG-r9-[DPK-^99mTc(CO)3]
- increase in cell-associated radioactivity after cleavage [2]: 57 -fold
- uptake after cleavage, % of positive control ([2]; after MMP-9): 107%
- uptake before cleavage, % of positive control CPP ([2]; positive control r9-[DPK-99mTc(CO)3]): 1.9%

Substance: (11-KDa-mPEG)-e9-XPLGLAG-r9-K(DOTA-Gd)
- increase in Gd uptake after cleavage ([3]; 8 μM): 19 -fold
- Gd3+ uptake, MMP-9-cleaved peptide ([3]; 8 μM, ICP-MS): 737 µM
- Gd3+ uptake, intact peptide ([3]; 8 μM, ICP-MS): 39 µM

Substance: ARKRSQ
- Total # times isolated [4]: 2
- # times identified in Nep/Mep/MMP-9 screen [5]: 2

Substance: Ac-r9-k-NH2 [reference compound]
- IC50 ([6]; intact / uncleaved peptide): 3.4 µM

Substance: DSNAES
- Total # times isolated [4]: 4
- # times identified in Nep/Mep/MMP-9 screen [5]: 3
- # times identified in liver/kidney/tumor screen [7]: 1

Substance: DVGTTE
- Total # times isolated [4]: 5
- # times identified in Nep/Mep/MMP-9 screen [5]: 5

Substance: FMEIET
- Total # times isolated [4]: 3
- # times identified in Nep/Mep/MMP-9 screen [5]: 3

Substance: GGHTRQ
- Total # times isolated [4]: 2
- # times identified in Nep/Mep/MMP-9 screen [5]: 2

Substance: GLWQGP
- Total # times isolated [4]: 7
- # times identified in liver/kidney/tumor screen [7]: 7

Substance: GMMYRS
- Total # times isolated [4]: 4
- # times identified in Nep/Mep/MMP-9 screen [5]: 1
- # times identified in liver/kidney/tumor screen [7]: 3

Substance: H2N-e6-XPLGLAG-r9-Xc(Cy5)-CONH2
- Km [8]: 534 µM
- kcat [8]: 15.0 s⁻¹
- kcat/Km [8]: 28,037 M^−1s^−1

Substance: HEVVAG
- Total # times isolated [4]: 2
- # times identified in Nep/Mep/MMP-9 screen [5]: 2

Substance: IDKQLE
- Total # times isolated [4]: 3
- # times identified in Nep/Mep/MMP-9 screen [5]: 3

Substance: INGKVT
- Total # times isolated [4]: 2
- # times identified in Nep/Mep/MMP-9 screen [5]: 2

Substance: ITDMAA
- Total # times isolated [4]: 4
- # times identified in in-vivo screen [9]: 1
- # times identified in liver/kidney/tumor screen [7]: 3

Substance: LPGMMG
- Total # times isolated [4]: 5
- # times identified in liver/kidney/tumor screen [7]: 5

Substance: QCTGRF
- Total # times isolated [4]: 6
- # times identified in in-vivo screen [9]: 1
- # times identified in Nep/Mep/MMP-9 screen [5]: 1
- # times identified in liver/kidney/tumor screen [7]: 4

Substance: RLQLKL
- Total # times isolated [4]: 12
- # times identified in in-vivo screen [9]: 1
- # times identified in liver/kidney/tumor screen [7]: 11

Substance: RWRTNF
- Total # times isolated [4]: 4
- # times identified in Nep/Mep/MMP-9 screen [5]: 4

Substance: TDLGAM
- Total # times isolated [4]: 5
- # times identified in liver/kidney/tumor screen [7]: 5

Substance: TSAVRT
- Total # times isolated [4]: 2
- # times identified in in-vivo screen [9]: 2

Substance: WRNTIA
- Total # times isolated [4]: 3
- # times identified in Nep/Mep/MMP-9 screen [5]: 3

Substance: WRPCES
- Total # times isolated [4]: 3
- # times identified in in-vivo screen [9]: 1
- # times identified in Nep/Mep/MMP-9 screen [5]: 2

Substance: [11 kDa PEG]-X-e9-XPLG*LAG-r9 [cleavable ACPP]
- contrast index (tumor−autofluorescence)/(normal contralateral−autofluorescence) [10]: 2.1±0.17

Substance: [11 kDaPEG]-X-e9-XLALGPG-r9 [scrambled isomer]
- contrast index (tumor−autofluorescence)/(normal contralateral−autofluorescence) [10]: 1.3±0.16

Substance: [11-kDa PEG]-X-e9-Xplglag-r9-Xk(Cy5) [all-D-amino acid control]
- contrast index (tumor−autofluorescence)/(normal contralateral−autofluorescence) [10]: 1.5±0.11

Substance: decanoyl-RVKR-chloromethylketone [reference compound]
- IC50 ([6]; control inhibitor): 0.027 µM

Substance: e9-XPLGLAG-r9-Xk-NH2
- IC50 ([6]; intact / uncleaved peptide): 27 µM

Substance: mPEG(11 kd)-S—CH2—CONH-ahx-e9-ahx-PLGLAG-r9-ahx-k-CONH2
- increase in cell-associated radioactivity after cleavage [2]: 38 -fold

Substance: mPEG(11kd)-e9-XPLGLAG-r9-Xk-NH2
- IC50 ([6]; intact / uncleaved peptide): > 50 µM

Substance: mPEG-S—CH2CONH-e9-ahx-PLGLAG-r9-K[DOTA(Gd)]-CONH2
- increase in Gd uptake after cleavage ([3]; 8 μM): 19 -fold

Substance: r9-K(DOTA-Gd) [reference compound]
- Gd3+ uptake, positive control CPP ([3]; ICP-MS): 504 µM
